Literature values in PMC7898808 (Diabetes, Obesity & Metabolism, 2020).
Read-outs that look alike come from different tables or passages of the source.

What was measured:
[1] = system: hepatic DNL
[2] = system: fructose-stimulated DNL; conditions: single dose of 20 mg, healthy population
[3] = system: steady-state DNL; conditions: repeat dosing in NASH subjects
[4] = system: NAFLD patients; conditions: 20 mg for 12 weeks

Compound	DNL inhibition ([1]; 50 mg daily dosing for 10 days)	DNL inhibition ([1]; 100 mg daily dosing for 10 days)	DNL inhibition ([1]; 150 mg daily dosing for 10 days)	reduction of fructose-stimulated DNL [2]	decrease of steady-state DNL [3]	patients achieving relative MRI-PDFF reduction of ≥30% [4]
Cc1nnc(-c2cc(C(=O)N3CCC(c4ccc(C#N)cc4)CC3)c(C)cc2C2CCC2)[nH]1 [TVB-2640]	23%	65%	77%			
COc1ccccc1[C@H](Cn1c(=O)n(C(C)(C)C(=O)O)c(=O)c2c(C)c(-c3ncco3)sc21)OC1CCOCC1 [GS-0976]				70%	22%	43%
